# “Also recorded” adds a separate entry of the source.
# Experiments:
# liver = experiment: Biochemical profiling (LC/MS) of livers from rats dosed with acetaminophen; assay type: in vivo; conditions: rat liver
# Method: Acetaminophen overdose is one of the leading causes of liver failure. In this experiment, rats were dosed with acetaminophen and livers were harvested across a time course. Two doses of acetaminophen were used (50 mg/kg and 1500 mg/kg), as well as a control group that received no acetaminophen. The harvest times were 6, 18, 24, and 48 hours. Three rats (biological replicates) were in each treatment group, wherein a treatment group is defined as each combination of dose and time. […] Still referring to FIG. 2, the information recorded in data tables 221, 223, and 224 could also be recorded in data tables 218 and 219 (time_summary_set, and tissue_summary_set), thus allowing comparison by time or tissue type.
# The resulting liver samples were extracted and analyzed by biochemical profiling (BCP) using LC/MS in both positive and negative modes, yielding a biochemical profile containing intensities on more than 100 compounds. Three technical replicates of each rat liver were analyzed. […]
# A summary set was created for each treatment group, and the experimental information associated with that treatment group (treatment, dosage, timepoint, baseline of comparison) was recorded in the coherence database. […] Comparing a treated group to a control group created summaries that were recorded in the treatment_summary_set data table (FIG. 2, table 217) of the coherence database schema. […]
# Saccharomyces cerevisiae = experiment: Biochemical and gene expression profiling with pathway analysis of yeast treated with fungicidal drugs; assay type: cell-based; conditions: inhibitory dose; three replicate samples per drug; single harvest timepoint
# Method: An experiment was performed to attempt to characterize four fungicidal drugs: Amphoteracin B, Ketaconazole, Fluconazole, and Posaconazole. Yeast samples (Saccharomyces cerevisiae) were treated with an inhibitory dose of each drug, using three replicate samples per drug, and harvested at a single timepoint. Biochemical profiling and gene expression profiling data were gathered on each yeast sample, and summarized and related to KEGG as described in Example 6.
Compound,"timepoint with most perturbed compounds (biochemical profile vs matched control) (liver; 50 mg/kg and 1500 mg/kg, harvest at 6, 18, 24 and 48 hours)","pathway showing the primary metabolic disturbance (liver; 18 hour timepoint, pathway viewing tool (KEGG))",comparison of pathway perturbations between treatments (Saccharomyces cerevisiae)
CC(=O)Nc1ccc(O)cc1 [acetaminophen],more compounds were perturbed at the 18 hour timepoint than any other,nitrogen metabolism pathway was most likely the source of the primary metabolic disturbance,
OC(Cn1cncn1)(Cn1cncn1)c1ccc(F)cc1F [Fluconazole],,,perturbations that were unlike those of Amphoteracin B
CC[C@@H]([C@H](C)O)n1ncn(-c2ccc(N3CCN(c4ccc(OC[C@@H]5CO[C@@](Cn6cncn6)(c6ccc(F)cc6F)C5)cc4)CC3)cc2)c1=O [Posaconazole],,,behaved most like Fluconazole; also recorded: perturbations that were unlike those of Amphoteracin B

# Reference: patent US20040260721A1, “Methods and systems for creation of a coherence database” (priority 2003, published 2004)
